Laboratory results published in US20230265151A1, “GIP/GLP1 CO-AGONIST COMPOUNDS” (priority 2020, published 2023).
Like-named read-outs stand apart in the source and are kept apart here. *1 amine or outer side, *2 acyl side, *3 side chain or, on linkers, in order; H or OH if unused. Where a SMILES comes first, the peptide text is derived from it. Side-chain parts run from the residue outwards. [ ]: non-standard residue; d: D form. The star is where a group is joined. αMePhe(2-F) = C[C@](N)(Cc1ccccc1F)C(=O)O; γGlu = O=C(O)[C@H](CCC(=O)[*:2])N[*:1]; C14 diacid = O=C(O)CCCCCCCCCCCCC(=O)*; αMeY = C[C@](N)(Cc1ccc(O)cc1)C(=O)O; αMeL = CC(C)C[C@](C)(N)C(=O)O; Orn = NCCC[C@H](N)C(=O)O; AEEA = NCCOCCOCC(=O)O; Aib = CC(C)(N)C(=O)O

Experiments:
Assay type in all cases: cell-based
hGIPR = molecular target: T1, hGIPR (Homo sapiens, UniProt P48546); test: Functional cAMP formation (HTRF) in HEK-293 clonal cells expressing hGIPR, 0.1% bovine casein, without or with 1.0% human serum albumin; conditions: 37° C.; for Emax: HEK293, cAMP, percent of maximal response to GIP(1-42)NH2, read-out: hGIPR Emax, % ± SEM; for EC50: cAMP, read-out: hGIPR EC50, nM (SEM, n)
T1 construct: expressed in transfected cells
T1 sequence (P48546 22-466): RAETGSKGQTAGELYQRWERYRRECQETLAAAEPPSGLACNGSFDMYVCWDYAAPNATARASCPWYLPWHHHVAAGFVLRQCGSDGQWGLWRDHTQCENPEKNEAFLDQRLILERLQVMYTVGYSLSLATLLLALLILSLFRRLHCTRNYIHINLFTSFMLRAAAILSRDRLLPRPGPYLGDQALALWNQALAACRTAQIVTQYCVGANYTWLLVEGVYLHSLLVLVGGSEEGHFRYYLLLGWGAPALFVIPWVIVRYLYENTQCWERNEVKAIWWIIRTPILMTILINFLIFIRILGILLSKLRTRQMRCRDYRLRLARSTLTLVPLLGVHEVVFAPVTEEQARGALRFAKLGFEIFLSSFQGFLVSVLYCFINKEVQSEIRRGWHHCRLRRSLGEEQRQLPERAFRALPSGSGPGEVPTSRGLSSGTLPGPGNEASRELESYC
Outline: (§1)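 Cells were stimulated with peptide for 30 min at 37° C, then lysed in buffer carrying cAMP-d2 and anti-cAMP Eu3+-cryptate for a competitive HTRF read after at least 60 min at room temperature. The 665/620 nm ratio was converted to nM cAMP against a standard curve.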

hGCGR = molecular target: T2, hGCGR (Homo sapiens, UniProt P47871); test: Functional cAMP formation (HTRF) in HEK-293 clonal cells expressing hGCGR, 0.1% bovine casein, without or with 1.0% human serum albumin; conditions: cAMP, 37° C., read-out: hGCGR EC50, nM (SEM, n)
T2 construct: expressed in transfected cells
T2 sequence (P47871 26-477): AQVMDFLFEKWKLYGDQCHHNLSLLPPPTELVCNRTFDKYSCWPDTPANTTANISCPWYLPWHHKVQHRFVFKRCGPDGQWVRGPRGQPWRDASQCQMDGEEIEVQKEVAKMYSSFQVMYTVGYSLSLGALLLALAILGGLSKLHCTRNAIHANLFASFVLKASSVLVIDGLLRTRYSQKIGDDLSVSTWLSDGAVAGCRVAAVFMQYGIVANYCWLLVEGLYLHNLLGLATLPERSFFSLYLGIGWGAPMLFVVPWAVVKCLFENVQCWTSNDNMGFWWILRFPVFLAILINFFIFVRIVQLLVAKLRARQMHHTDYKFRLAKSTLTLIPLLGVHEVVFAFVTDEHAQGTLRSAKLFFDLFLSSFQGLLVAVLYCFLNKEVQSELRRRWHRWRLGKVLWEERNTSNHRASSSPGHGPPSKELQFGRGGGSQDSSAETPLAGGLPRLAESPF
Outline: as §1

hGLP-1R = hGLP-1R (Homo sapiens, UniProt P43220); test: Functional cAMP formation (HTRF) in HEK-293 clonal cells expressing hGLP-1R, 0.1% bovine casein, without or with 1.0% human serum albumin; design: expressed in transfected cells; conditions: 37° C.; for EC50: cAMP, read-out: hGLP-1R EC50, nM (SEM, n); for Emax: HEK293, cAMP, percent of maximal response to GLP-1(7-36)NH2, read-out: hGLP-1R Emax, % ± SEM
Chain of hGLP-1R (P43220 24-463): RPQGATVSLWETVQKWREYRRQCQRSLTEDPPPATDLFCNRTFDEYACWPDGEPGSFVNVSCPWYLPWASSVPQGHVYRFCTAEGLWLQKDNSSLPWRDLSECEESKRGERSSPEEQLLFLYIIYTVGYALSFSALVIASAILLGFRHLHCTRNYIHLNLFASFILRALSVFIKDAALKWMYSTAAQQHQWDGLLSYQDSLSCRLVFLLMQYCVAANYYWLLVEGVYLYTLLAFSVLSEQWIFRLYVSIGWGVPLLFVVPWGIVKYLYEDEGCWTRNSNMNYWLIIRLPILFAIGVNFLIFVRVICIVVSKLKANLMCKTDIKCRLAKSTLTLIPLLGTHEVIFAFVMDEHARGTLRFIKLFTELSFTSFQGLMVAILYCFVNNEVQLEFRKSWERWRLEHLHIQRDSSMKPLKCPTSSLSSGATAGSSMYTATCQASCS
Outline: as §1

[1] = 0.1% bovine casein and 1.0% human serum albumin
[2] = 0.1% bovine casein (no human serum albumin), geometric mean
[3] = 0.1% bovine casein and 1.0% human serum albumin, geometric mean (SEM, n)
[4] = 0.1% bovine casein, arithmetic mean

CC[C@H](C)[C@H](NC(=O)[C@H](CC(C)C)NC(=O)[C@](C)(Cc1ccc(O)cc1)NC(=O)[C@@H](CCC(=O)O)NC(=O)[C@@H](NC(=O)[C@H](Cc1ccccc1)NC(=O)[C@H](CCC(=O)O)NC(=O)C(C)(C)NC(=O)[C@H](CCC(N)=O)NC(=O)[C@H](C)NC(=O)[C@H](CCCCNC(=O)COCCOCCNC(=O)COCCOCCNC(=O)CCCCCCCCCCCCC(=O)O)NC(=O)[C@H](CCCN)NC(=O)[C@H](CC(=O)O)NC(=O)[C@H](CC(C)C)NC(=O)[C@](C)(CC(C)C)NC(=O)[C@@H](NC(=O)C(C)(C)NC(=O)[C@H](Cc1ccncc1)NC(=O)[C@H](CC(=O)O)NC(=O)[C@H](CO)NC(=O)[C@@H](NC(=O)[C@](C)(Cc1ccccc1F)NC(=O)[C@@H](NC(=O)CNC(=O)[C@H](CCC(=O)O)NC(=O)C(C)(C)NC(=O)[C@@H](N)Cc1ccc(O)cc1)[C@@H](C)O)[C@@H](C)O)[C@@H](C)CC)[C@@H](C)CC)C(=O)N[C@@H](CCCCNC(=O)COCCOCCNC(=O)COCCOCCNC(=O)CCCCCCCCCCCCC(=O)O)C(=O)NCC(=O)NCC(=O)N1CCC[C@H]1C(=O)N[C@@H](CO)C(=O)N[C@@H](CO)C(=O)NCC(=O)N[C@@H](C)C(=O)N1CCC[C@H]1C(=O)N1CCC[C@H]1C(=O)N1CCC[C@H]1C(=O)N[C@@H](CO)C(N)=O [Example 387]
Emax (hGIPR; [1]): 93%
EC50 (hGIPR; [2]): 0.0137 nM
EC50 (hGCGR; [2]): > 9950 nM
EC50 (hGCGR; [3]): > 9950 nM
EC50 (hGLP-1R; [2]): 0.32 nM

CC[C@H](C)[C@H](NC(=O)[C@H](CC(C)C)NC(=O)[C@](C)(Cc1ccc(O)cc1)NC(=O)[C@@H](CCC(=O)O)NC(=O)[C@@H](NC(=O)[C@H](Cc1ccccc1)NC(=O)[C@H](CCC(=O)O)NC(=O)C(C)(C)NC(=O)[C@H](CCC(N)=O)NC(=O)[C@H](C)NC(=O)[C@H](CCCCNC(=O)COCCOCCNC(=O)COCCOCCNC(=O)CCCCCCCCCCCCC(=O)O)NC(=O)[C@H](CCCN)NC(=O)[C@H](CC(=O)O)NC(=O)[C@H](CC(C)C)NC(=O)[C@](C)(CC(C)C)NC(=O)[C@@H](NC(=O)C(C)(C)NC(=O)[C@H](Cc1ccc(O)cc1)NC(=O)[C@H](CC(=O)O)NC(=O)[C@H](CO)NC(=O)[C@@H](NC(=O)[C@](C)(Cc1ccccc1F)NC(=O)[C@@H](NC(=O)CNC(=O)[C@H](CCC(=O)O)NC(=O)C(C)(C)NC(=O)[C@@H](N)Cc1ccc(O)cc1)[C@@H](C)O)[C@@H](C)O)[C@@H](C)CC)[C@@H](C)CC)C(=O)N[C@@H](CCCCNC(=O)COCCOCCNC(=O)COCCOCCNC(=O)CCCCCCCCCCCCC(=O)O)C(=O)NCC(=O)NCC(=O)N1CCC[C@H]1C(=O)N[C@@H](CO)C(=O)N[C@@H](CO)C(=O)NCC(=O)N[C@@H](C)C(=O)N1CCC[C@H]1C(=O)N1CCC[C@H]1C(=O)N1CCC[C@H]1C(=O)N[C@@H](CO)C(N)=O [Example 388]
Emax (hGIPR; [1]): 82.1%
Emax (hGIPR; [4]): 98.3%
EC50 (hGIPR; [2]): 0.0103 nM
EC50 (hGCGR; [2]): > 9950 nM
EC50 (hGCGR; [3]): > 9950 nM
Emax (hGLP-1R; [4]): 95.4%
EC50 (hGLP-1R; [2]): 0.292 nM
EC50 (hGLP-1R; [3]): 6.31 nM

CC[C@H](C)[C@H](NC(=O)[C@H](CC(C)C)NC(=O)[C@](C)(Cc1ccc(O)cc1)NC(=O)[C@@H](CCC(=O)O)NC(=O)[C@@H](NC(=O)[C@H](Cc1ccccc1)NC(=O)[C@H](CCC(=O)O)NC(=O)C(C)(C)NC(=O)[C@H](CCC(N)=O)NC(=O)[C@H](C)NC(=O)[C@H](CCCCNC(=O)COCCOCCNC(=O)COCCOCCNC(=O)CCCCCCCCCCCCC(=O)O)NC(=O)[C@H](CCCN)NC(=O)[C@H](CC(=O)O)NC(=O)[C@H](CC(C)C)NC(=O)[C@](C)(CC(C)C)NC(=O)[C@@H](NC(=O)C(C)(C)NC(=O)[C@@H](NC(=O)[C@H](CC(=O)O)NC(=O)[C@H](CO)NC(=O)[C@@H](NC(=O)[C@](C)(Cc1ccccc1F)NC(=O)[C@@H](NC(=O)CNC(=O)[C@H](CCC(=O)O)NC(=O)C(C)(C)NC(=O)[C@@H](N)Cc1ccc(O)cc1)[C@@H](C)O)[C@@H](C)O)C(C)C)[C@@H](C)CC)[C@@H](C)CC)C(=O)N[C@@H](CCCCNC(=O)COCCOCCNC(=O)COCCOCCNC(=O)CCCCCCCCCCCCC(=O)O)C(=O)NCC(=O)NCC(=O)N1CCC[C@H]1C(=O)N[C@@H](CO)C(=O)N[C@@H](CO)C(=O)NCC(=O)N[C@@H](C)C(=O)N1CCC[C@H]1C(=O)N1CCC[C@H]1C(=O)N1CCC[C@H]1C(=O)N[C@@H](CO)C(N)=O [Example 389]
Emax (hGIPR; [1]): 82%
Emax (hGIPR; [4]): 94.6%
EC50 (hGIPR; [2]): 0.0178 nM
EC50 (hGIPR; [3]): 1.5 nM
EC50 (hGCGR; [2]): > 9950 nM
EC50 (hGCGR; [3]): > 9950 nM
Emax (hGLP-1R; [4]): 92.4%
EC50 (hGLP-1R; [2]): 0.19 nM

CC[C@H](C)[C@H](NC(=O)[C@H](CC(C)C)NC(=O)[C@](C)(Cc1ccc(O)cc1)NC(=O)[C@H](CCCCNC(=O)COCCOCCNC(=O)COCCOCCNC(=O)CC[C@H](NC(=O)CCCCCCCCCCCCC(=O)O)C(=O)O)NC(=O)[C@@H](NC(=O)[C@H](Cc1ccccc1)NC(=O)[C@H](CCC(=O)O)NC(=O)C(C)(C)NC(=O)[C@H](CCC(N)=O)NC(=O)[C@H](C)NC(=O)[C@H](CCC(N)=O)NC(=O)[C@H](CCCN)NC(=O)[C@H](CC(=O)O)NC(=O)[C@H](CC(C)C)NC(=O)[C@](C)(CC(C)C)NC(=O)[C@@H](NC(=O)C(C)(C)NC(=O)[C@@H](NC(=O)[C@H](CC(=O)O)NC(=O)[C@H](CO)NC(=O)[C@@H](NC(=O)[C@](C)(Cc1ccccc1F)NC(=O)[C@@H](NC(=O)CNC(=O)[C@H](CCC(=O)O)NC(=O)C(C)(C)NC(=O)[C@@H](N)Cc1ccc(O)cc1)[C@@H](C)O)[C@@H](C)O)C(C)C)[C@@H](C)CC)[C@@H](C)CC)C(=O)N[C@@H](CCCCNC(=O)COCCOCCNC(=O)COCCOCCNC(=O)CC[C@H](NC(=O)CCCCCCCCCCCCC(=O)O)C(=O)O)C(=O)NCC(=O)NCC(=O)N1CCC[C@H]1C(=O)N[C@@H](CO)C(=O)N[C@@H](CO)C(=O)NCC(=O)N[C@@H](C)C(=O)N1CCC[C@H]1C(=O)N1CCC[C@H]1C(=O)N1CCC[C@H]1C(=O)N[C@@H](CO)C(N)=O [Example 390] (H-Y[Aib]EGT[αMePhe(2-F)]TSDV[Aib]I[αMeL]LD[Orn]QAQ[Aib]EFIK([AEEA-AEEA-γGlu-C14 diacid])[αMeY]LIK([AEEA-AEEA-γGlu-C14 diacid])GGPSSGAPPPS-NH2)
Emax (hGIPR; [1]): 89.3%
EC50 (hGIPR; [2]): 0.0187 nM
EC50 (hGCGR; [2]): > 9950 nM
EC50 (hGCGR; [3]): > 9950 nM
Emax (hGLP-1R; [1]): 94.6%
Emax (hGLP-1R; [4]): 97.7%
EC50 (hGLP-1R; [2]): 0.209 nM
EC50 (hGLP-1R; [3]): 24.3 nM
